US20040204423A1, “Crystalline antifungal polymorph” (priority 1997, published 2004)

Experiment: Solid-state stability of polymorph Form I: conversion into other forms under normal storage and stress conditions
Type: physicochemical
Excerpt: The three crystalline polymorphic forms of the compound of formula designated as Form 1, II and III can readily be distinguished from one another by examination of the characteristic x-ray Diffraction patterns (see FIGS. 1-3), the characteristic infrared spectra (see FIGS. 4-6) and the characteristic Differential Scanning Calorimetry ([…]) thermograms (FIGS. 7-9).

- conversion into any other form (normal storage conditions (15′-30° C. and protected from light)): did not convert into any other form
- conversion into any other form (stress condition: 75% relative humidity at 40° C. for 6 weeks): did not convert into any other form
- conversion into any other form (stress condition: 75° C. for 6 weeks): did not convert into any other form
- conversion into any other form (stress condition: 97% relative humidity at ambient temperature for 2 minutes): did not convert into any other form
- conversion into any other form (stress condition: 150° C. for 2 hours): did not convert into any other form
Structure (SMILES): CCC([C@H](C)O)n1ncn(-c2ccc(N3CCN(c4ccc(OC[C@@H]5CO[C@@](Cn6cncn6)(c6ccc(F)cc6F)C5)cc4)CC3)cc2)c1=O (single isomer, unassigned; (-)) [Form 1]
